The NIST ThermoML archive (doi:10.1021/acs.jced.9b00752)
Where “and” joins values, the source holds several entries; their conditions need not be identical. Equal entries are not always repeated.

Experiment: mn = molality of the nth substance listed, in mol/kg
Conditions: 100 kPa, Liquid, Vibrating tube method

N[C@@H](Cc1ccc(O)cc1)C(=O)O [3-(p-hydroxyphenyl)-L-alanine] + O
mass density
Conditions | 278.65 K | 279.15 K | 279.65 K | 280.15 K | 280.65 K | 281.15 K | 281.65 K | 282.15 K | 282.65 K | 283.15 K
m1 = 0.0005 | 999.962 kg/m3 | 999.948 kg/m3 | 999.932 kg/m3 | 999.91 kg/m3 | 999.886 kg/m3 | 999.858 kg/m3 | 999.824 kg/m3 | 999.79 kg/m3 | 999.751 kg/m3 | 999.71 kg/m3
m1 = 0.001 | 999.995 kg/m3 | 999.981 kg/m3 | 999.964 kg/m3 | 999.941 kg/m3 | 999.918 kg/m3 | 999.89 kg/m3 | 999.857 kg/m3 | 999.821 kg/m3 | 999.781 kg/m3 | 999.741 kg/m3
m1 = 0.0011 | 1000.02 kg/m3 | 1000.01 kg/m3 | 999.989 kg/m3 | 999.968 kg/m3 | 999.946 kg/m3 | 999.917 kg/m3 | 999.883 kg/m3 | 999.848 kg/m3 | 999.809 kg/m3 | 999.765 kg/m3
m1 = 0.0022 | 1000.09 kg/m3 | 1000.08 kg/m3 | 1000.06 kg/m3 | 1000.04 kg/m3 | 1000.01 kg/m3 | 999.984 kg/m3 | 999.951 kg/m3 | 999.916 kg/m3 | 999.876 kg/m3 | 999.835 kg/m3
m1 = 0.0026 | 1000.11 kg/m3 | 1000.1 kg/m3 | 1000.08 kg/m3 | 1000.06 kg/m3 | 1000.03 kg/m3 | 1000 kg/m3 | 999.971 kg/m3 | 999.937 kg/m3 | 999.897 kg/m3 | 999.854 kg/m3
m1 = 0.0035 | 1000.18 kg/m3 | 1000.16 kg/m3 | 1000.14 kg/m3 | 1000.12 kg/m3 | 1000.1 kg/m3 | 1000.07 kg/m3 | 1000.03 kg/m3 | 1000 kg/m3 | 999.961 kg/m3 | 999.919 kg/m3
m1 = 0.0036 | 1000.18 kg/m3 | 1000.16 kg/m3 | 1000.14 kg/m3 | 1000.12 kg/m3 | 1000.1 kg/m3 | 1000.07 kg/m3 | 1000.04 kg/m3 | 1000 kg/m3 | 999.962 kg/m3 | 999.92 kg/m3
m1 = 0.0038 | 1000.18 kg/m3 | 1000.17 kg/m3 | 1000.15 kg/m3 | 1000.13 kg/m3 | 1000.1 kg/m3 | 1000.08 kg/m3 | 1000.04 kg/m3 | 1000.01 kg/m3 | 999.967 kg/m3 | 999.925 kg/m3
m1 = 0.0045 | 1000.23 kg/m3 and 1000.24 kg/m3 | 1000.22 kg/m3 and 1000.23 kg/m3 | 1000.2 kg/m3 and 1000.21 kg/m3 | 1000.18 kg/m3 and 1000.19 kg/m3 | 1000.15 kg/m3 and 1000.16 kg/m3 | 1000.13 kg/m3 and 1000.14 kg/m3 | 1000.09 kg/m3 and 1000.1 kg/m3 | 1000.06 kg/m3 and 1000.07 kg/m3 | 1000.02 kg/m3 and 1000.03 kg/m3 | 999.976 kg/m3 and 999.985 kg/m3
m1 = 0.0047 | 1000.24 kg/m3 | 1000.22 kg/m3 | 1000.21 kg/m3 | 1000.18 kg/m3 | 1000.16 kg/m3 | 1000.13 kg/m3 | 1000.1 kg/m3 | 1000.06 kg/m3 | 1000.02 kg/m3 | 999.98 kg/m3
m1 = 0.0053 | 1000.28 kg/m3 and 1000.29 kg/m3 | 1000.27 kg/m3 and 1000.28 kg/m3 | 1000.25 kg/m3 and 1000.26 kg/m3 | 1000.23 kg/m3 and 1000.24 kg/m3 | 1000.2 kg/m3 and 1000.21 kg/m3 | 1000.17 kg/m3 and 1000.18 kg/m3 | 1000.14 kg/m3 and 1000.15 kg/m3 | 1000.1 kg/m3 and 1000.12 kg/m3 | 1000.07 kg/m3 and 1000.08 kg/m3 | 1000.02 kg/m3 and 1000.03 kg/m3
m1 = 0.0055 | 1000.28 kg/m3 | 1000.27 kg/m3 | 1000.25 kg/m3 | 1000.23 kg/m3 | 1000.2 kg/m3 | 1000.17 kg/m3 | 1000.14 kg/m3 | 1000.1 kg/m3 | 1000.07 kg/m3 | 1000.02 kg/m3
